# In the NIST ThermoML archive (doi:10.1016/j.fluid.2016.08.014):
# Numbers after ± are expanded uncertainties.
# Experiments:
# [1] = refractive index (Na D-line) (dimensionless); settings: 298.15 K; 101.33 kPa; Liquid; Standard Abbe refractometry
# [2] = Liquid, Vibrating tube method
structure (smiles),measurement,setting,value
CN(C)C=O [dimethylformamide],refractive index,[1],1.42844 ± 0.00031
same,mass density,"[2]; 293.15 K, 100 kPa",949 ± 1 kg/m3
same,mass density,"[2]; 293.15 K, 2500 kPa",950 ± 1 kg/m3
same,mass density,"[2]; 293.15 K, 5100 kPa",952 ± 1 kg/m3
same,mass density,"[2]; 293.15 K, 10100 kPa",955 ± 1 kg/m3
same,mass density,"[2]; 293.15 K, 15100 kPa",958 ± 1 kg/m3
same,mass density,"[2]; 293.15 K, 20100 kPa",960 ± 1 kg/m3
same,mass density,"[2]; 293.15 K, 25000 kPa",963 ± 1 kg/m3
same,mass density,"[2]; 293.15 K, 30300 kPa",966 ± 1 kg/m3
same,mass density,"[2]; 298.15 K, 101.33 kPa",943.978 ± 4 kg/m3
same,mass density,"[2]; 303.15 K, 100 kPa",939 ± 1 kg/m3
same,mass density,"[2]; 303.15 K, 2500 kPa",941 ± 1 kg/m3
same,mass density,"[2]; 303.15 K, 5100 kPa",943 ± 1 kg/m3
same,mass density,"[2]; 303.15 K, 10000 kPa",940 ± 10 kg/m3
same,mass density,"[2]; 303.15 K, 15100 kPa",949 ± 1 kg/m3
same,mass density,"[2]; 303.15 K, 20100 kPa",951 ± 1 kg/m3
same,mass density,"[2]; 303.15 K, 25000 kPa",954 ± 1 kg/m3
same,mass density,"[2]; 303.15 K, 30100 kPa",957 ± 1 kg/m3
same,mass density,"[2]; 313.15 K, 100 kPa",930 ± 1 kg/m3
same,mass density,"[2]; 313.15 K, 2600 kPa",931 ± 1 kg/m3
same,mass density,"[2]; 313.15 K, 5100 kPa",933 ± 1 kg/m3
same,mass density,"[2]; 313.15 K, 10000 kPa",936 ± 1 kg/m3
same,mass density,"[2]; 313.15 K, 15100 kPa",939 ± 1 kg/m3
same,mass density,"[2]; 313.15 K, 20100 kPa",942 ± 1 kg/m3
same,mass density,"[2]; 313.15 K, 25000 kPa",945 ± 1 kg/m3
same,mass density,"[2]; 313.15 K, 30100 kPa",948 ± 1 kg/m3
same,mass density,"[2]; 323.15 K, 100 kPa",920 ± 1 kg/m3
same,mass density,"[2]; 323.15 K, 2500 kPa",922 ± 1 kg/m3
same,mass density,"[2]; 323.15 K, 5100 kPa",924 ± 1 kg/m3
same,mass density,"[2]; 323.15 K, 10000 kPa",927 ± 1 kg/m3
same,mass density,"[2]; 323.15 K, 15100 kPa",930 ± 1 kg/m3
same,mass density,"[2]; 323.15 K, 20100 kPa",934 ± 1 kg/m3
same,mass density,"[2]; 323.15 K, 25100 kPa",937 ± 1 kg/m3
same,mass density,"[2]; 323.15 K, 30400 kPa",940 ± 1 kg/m3
same,mass density,"[2]; 333.15 K, 200 kPa",910 ± 1 kg/m3
same,mass density,"[2]; 333.15 K, 2600 kPa",912 ± 1 kg/m3
same,mass density,"[2]; 333.15 K, 5000 kPa",914 ± 1 kg/m3
same,mass density,"[2]; 333.15 K, 10200 kPa",918 ± 1 kg/m3
same,mass density,"[2]; 333.15 K, 15000 kPa",921 ± 1 kg/m3
same,mass density,"[2]; 333.15 K, 20300 kPa",925 ± 1 kg/m3
same,mass density,"[2]; 333.15 K, 25100 kPa",928 ± 1 kg/m3
same,mass density,"[2]; 333.15 K, 30200 kPa",931 ± 1 kg/m3
same,mass density,"[2]; 343.15 K, 200 kPa",900 ± 1 kg/m3
same,mass density,"[2]; 343.15 K, 2500 kPa",903 ± 1 kg/m3
same,mass density,"[2]; 343.15 K, 5200 kPa",905 ± 1 kg/m3
same,mass density,"[2]; 343.15 K, 10000 kPa",908 ± 1 kg/m3
same,mass density,"[2]; 343.15 K, 15000 kPa",912 ± 1 kg/m3
same,mass density,"[2]; 343.15 K, 20100 kPa",916 ± 1 kg/m3
same,mass density,"[2]; 343.15 K, 25100 kPa",919 ± 1 kg/m3
same,mass density,"[2]; 343.15 K, 30400 kPa",922 ± 1 kg/m3
same,mass density,"[2]; 353.15 K, 200 kPa",890 ± 1 kg/m3
same,mass density,"[2]; 353.15 K, 2500 kPa",893 ± 1 kg/m3
same,mass density,"[2]; 353.15 K, 5100 kPa",895 ± 1 kg/m3
same,mass density,"[2]; 353.15 K, 10100 kPa",899 ± 1 kg/m3
same,mass density,"[2]; 353.15 K, 15000 kPa",903 ± 1 kg/m3
same,mass density,"[2]; 353.15 K, 20100 kPa",907 ± 1 kg/m3
same,mass density,"[2]; 353.15 K, 25100 kPa",910 ± 1 kg/m3
same,mass density,"[2]; 353.15 K, 30200 kPa",914 ± 1 kg/m3
same,mass density,"[2]; 363.15 K, 200 kPa",881 ± 1 kg/m3
same,mass density,"[2]; 363.15 K, 2600 kPa",883 ± 1 kg/m3
same,mass density,"[2]; 363.15 K, 5000 kPa",885 ± 1 kg/m3
same,mass density,"[2]; 363.15 K, 10100 kPa",890 ± 1 kg/m3
same,mass density,"[2]; 363.15 K, 15100 kPa",894 ± 1 kg/m3
same,mass density,"[2]; 363.15 K, 20100 kPa",897 ± 1 kg/m3
same,mass density,"[2]; 363.15 K, 25100 kPa",901 ± 1 kg/m3
same,mass density,"[2]; 363.15 K, 30100 kPa",905 ± 1 kg/m3
same,mass density,"[2]; 373.15 K, 100 kPa",871 ± 1 kg/m3
same,mass density,"[2]; 373.15 K, 2600 kPa",873 ± 1 kg/m3
same,mass density,"[2]; 373.15 K, 5000 kPa",876 ± 1 kg/m3
same,mass density,"[2]; 373.15 K, 10100 kPa",880 ± 1 kg/m3
same,mass density,"[2]; 373.15 K, 15300 kPa",885 ± 1 kg/m3
same,mass density,"[2]; 373.15 K, 20100 kPa",888 ± 1 kg/m3
same,mass density,"[2]; 373.15 K, 25100 kPa",892 ± 1 kg/m3
same,mass density,"[2]; 373.15 K, 30100 kPa",896 ± 1 kg/m3
same,mass density,"[2]; 383.15 K, 100 kPa",860 ± 1 kg/m3
same,mass density,"[2]; 383.15 K, 2500 kPa",863 ± 1 kg/m3
same,mass density,"[2]; 383.15 K, 5100 kPa",866 ± 1 kg/m3
same,mass density,"[2]; 383.15 K, 10000 kPa",870 ± 1 kg/m3
same,mass density,"[2]; 383.15 K, 15100 kPa",875 ± 1 kg/m3
same,mass density,"[2]; 383.15 K, 20200 kPa",880 ± 1 kg/m3
same,mass density,"[2]; 383.15 K, 25100 kPa",884 ± 1 kg/m3
same,mass density,"[2]; 383.15 K, 30300 kPa",888 ± 1 kg/m3
same,mass density,"[2]; 393.15 K, 100 kPa",851 ± 1 kg/m3
same,mass density,"[2]; 393.15 K, 2600 kPa",853 ± 1 kg/m3
same,mass density,"[2]; 393.15 K, 5200 kPa",856 ± 1 kg/m3
same,mass density,"[2]; 393.15 K, 10000 kPa",861 ± 1 kg/m3
same,mass density,"[2]; 393.15 K, 15000 kPa",866 ± 1 kg/m3
same,mass density,"[2]; 393.15 K, 20100 kPa",870 ± 1 kg/m3
same,mass density,"[2]; 393.15 K, 25100 kPa",875 ± 1 kg/m3
same,mass density,"[2]; 393.15 K, 30400 kPa",879 ± 1 kg/m3
same,mass density,"[2]; 403.15 K, 100 kPa",840 ± 1 kg/m3
same,mass density,"[2]; 403.15 K, 2600 kPa",843 ± 1 kg/m3
same,mass density,"[2]; 403.15 K, 5000 kPa",846 ± 1 kg/m3
same,mass density,"[2]; 403.15 K, 10100 kPa",851 ± 1 kg/m3
same,mass density,"[2]; 403.15 K, 15100 kPa",856 ± 1 kg/m3
same,mass density,"[2]; 403.15 K, 20100 kPa",861 ± 1 kg/m3
same,mass density,"[2]; 403.15 K, 25100 kPa",866 ± 1 kg/m3
same,mass density,"[2]; 403.15 K, 30300 kPa",870 ± 1 kg/m3
same,mass density,"[2]; 413.15 K, 200 kPa",830 ± 1 kg/m3
same,mass density,"[2]; 413.15 K, 2500 kPa",833 ± 1 kg/m3
same,mass density,"[2]; 413.15 K, 5000 kPa",836 ± 1 kg/m3
same,mass density,"[2]; 413.15 K, 10200 kPa",842 ± 1 kg/m3
same,mass density,"[2]; 413.15 K, 14900 kPa",847 ± 1 kg/m3
same,mass density,"[2]; 413.15 K, 20000 kPa",852 ± 1 kg/m3
same,mass density,"[2]; 413.15 K, 25200 kPa",857 ± 1 kg/m3
same,mass density,"[2]; 413.15 K, 30000 kPa",861 ± 1 kg/m3
